Experimental data as given in patent US20250101039A1, “RIFAMYCIN DERIVATIVES FOR THE TREATMENT OF DISEASES” (priority 2022, published 2025).
In brackets after ≈: the same amount, converted by molar mass. Read-outs that look alike come from different tables or passages of the source.

Experiments:
[1] = test system: A. baumannii RpoB H535Q; test: microbe, parasite or virus in culture; assay type: cell-based, Acinetobacter baumannii; settings: Acinetobacter baumannii, RPOBH535Q
[2] = test system: S. aureus; test: MIC by broth microdilution, S. aureus; assay type: cell-based, Staphylococcus aureus; settings: cation adjusted Mueller Hinton broth, 35° C. 20 hours
[3] = test system: A. baumannii RpoB L542F; test: microbe, parasite or virus in culture; assay type: cell-based, Acinetobacter baumannii; settings: Acinetobacter baumannii, RPOBL542F
[4] = test system: A. baumannii RpoB H535L; test: microbe, parasite or virus in culture; assay type: cell-based, Acinetobacter baumannii; settings: Acinetobacter baumannii, RPOBH535L
[5] = test system: A. baumannii RpoB H535Q/S521T; test: microbe, parasite or virus in culture; assay type: cell-based, Acinetobacter baumannii; settings: Acinetobacter baumannii, RPOBH535Q/S521T
[6] = test system: Staphylococcus epidermidis (strain ATCC 12228); test: MIC by broth microdilution, S. epidermidis; assay type: cell-based; settings: Staphylococcus epidermidis
[7] = test system: H. influenzae (strain ATCC 49247); test: MIC by broth microdilution, H. influenzae; assay type: cell-based, Hemophilus influenzae; settings: Haemophilus influenzae
[8] = test system: Enterococcus faecalis (strain ATCC 51575); test: MIC by broth microdilution, E. faecalis; assay type: cell-based; settings: Enterococcus faecalis
[9] = test system: A. baumannii; test: MIC by broth microdilution, A. baumannii (WT); assay type: cell-based, Acinetobacter baumannii; settings: for MIC: Acinetobacter baumannii
[10] = test system: A. baumannii RpoB H535C; test: microbe, parasite or virus in culture; assay type: cell-based, Acinetobacter baumannii; settings: Acinetobacter baumannii, RPOBH535C
[11] = test system: Enterococcus faecium (strain NCTC 12204); test: MIC by broth microdilution, E. faecium; assay type: cell-based; settings: Enterococcus faecium
[12] = test system: A. baumannii RpoB N527D; test: microbe, parasite or virus in culture; assay type: cell-based, Acinetobacter baumannii; settings: Acinetobacter baumannii, RPOBN527D, read-out: MIC, RpoB mutation N527D
[13] = test system: A. baumannii RpoB I581M; test: microbe, parasite or virus in culture; assay type: cell-based, Acinetobacter baumannii; settings: Acinetobacter baumannii, RPOBI581M, read-out: MIC, RpoB mutation I581M
[14] = test system: A. baumannii RpoB S583L; test: microbe, parasite or virus in culture; assay type: cell-based, Acinetobacter baumannii; settings: Acinetobacter baumannii, RPOBS583L, read-out: MIC, RpoB mutation S583L
[15] = 20 h, read-out: A. baumannii MIC, RpoB H535Q, Table 4, RPMI + FCS
[16] = 20 h, read-out: MIC, RpoB mutation H535Q, Table 5 part 1 c2, 1st H535Q isolate, RPMI + 10% FCS
[17] = 20 h, read-out: MIC, RpoB mutation H535Q, Table 5 part 1 c3, 2nd H535Q isolate, RPMI + 10% FCS
[18] = 20 h, read-out: MIC, RpoB mutation H535Q, Table 5 part 1 c4, 3rd H535Q isolate, RPMI + 10% FCS
[19] = 20 h, read-out: MIC, RpoB mutation L542F, Table 5 part 3 c2, 1st L542F isolate, RPMI + 10% FCS
[20] = 20 h, read-out: MIC, RpoB mutation L542F, Table 5 part 3 c3, 2nd L542F isolate, RPMI + 10% FCS
[21] = 20 h, read-out: A. baumannii MIC, RpoB H535L, Table 4, RPMI + FCS
[22] = 20 h, read-out: MIC, RpoB mutation H535L, Table 5 part 2 c5, 1st H535L isolate, RPMI + 10% FCS
[23] = 20 h, read-out: MIC, RpoB mutation H535L, Table 5 part 2 c6, 2nd H535L isolate, RPMI + 10% FCS
[24] = 20 h, read-out: MIC, RpoB mutation H535L, Table 5 part 3 c1, 3rd H535L isolate, RPMI + 10% FCS
[25] = 20 h, read-out: MIC, RpoB mutation H535L, Table 5 part 3 c6, 4th H535L isolate, RPMI + 10% FCS
[26] = 20 h, read-out: MIC, RpoB mutation H535L, Table 5 part 3 c7, 5th H535L isolate, RPMI + 10% FCS
[27] = read-out: MIC, RpoB mutation H535Q/S521T, Table 5 part 1 c5, 1st H535Q/S521T isolate, RPMI + 10% FCS
[28] = read-out: MIC, RpoB mutation H535Q/S521T, Table 5 part 1 c6, 2nd H535Q/S521T isolate, RPMI + 10% FCS
[29] = ATCC12228, strain ATCC 12228, cation adjusted Mueller Hinton broth, read-out: MIC S. epidermidis
[30] = ATCC49247, strain ATCC 49247, Hemophilus test medium broth, read-out: MIC H. influenzae
[31] = ATCC51575, strain ATCC 51575, cation adjusted Mueller Hinton broth, read-out: MIC E. faecalis
[32] = 20 h, read-out: A. baumannii MIC, RpoB H535C, Table 4, RPMI + FCS
[33] = 20 h, read-out: MIC, RpoB mutation H535C, Table 5 part 2 c1, 1st H535C isolate, RPMI + 10% FCS
[34] = 20 h, read-out: MIC, RpoB mutation H535C, Table 5 part 2 c2, 2nd H535C isolate, RPMI + 10% FCS
[35] = 20 h, read-out: MIC, RpoB mutation H535C, Table 5 part 2 c3, 3rd H535C isolate, RPMI + 10% FCS
[36] = 20 h, read-out: MIC, RpoB mutation H535C, Table 5 part 2 c4, 4th H535C isolate, RPMI + 10% FCS
[37] = NCTC12204, strain NCTC 12204, cation adjusted Mueller Hinton broth, read-out: MIC E. faecium

Molecule `CO[C@H]1/C=C/O[C@@]2(C)Oc3c(C)c(O)c4c(c3C2=O)C2=NC3(CCN(CC(C)C)CC3)NC2=C(NC(=O)/C(C)=C\C=C\[C@H](C)[C@H](O)[C@@H](C)[C@@H](O)[C@@H](C)[C@H](OC(C)=O)[C@@H]1C)C4=O` [Rifabutin, reference compound] has an MIC [1, 15] of 0.004 mg/L, an MIC [1, 16] of 0.03 mg/L and an MIC [1, 17] of over 32 mg/L. The MIC [1, 18] was 16 mg/L, the MIC ([2]; Staphylococcus aureus, read-out: MIC S. aureus) was 0.016 mg/L (≈ 0.0189 µM) and the MIC [3, 19] was 0.004 mg/L. The MIC [3, 20] was 1 mg/L, the MIC [4, 21] was over 32 mg/L and the MIC [4, 22] was 0.06 mg/L. For the same molecule, the MIC [4, 23] was 0.008 mg/L, the MIC [4, 24] was over 32 mg/L and the MIC [4, 25] was over 32 mg/L. It also gave an MIC [4, 26] of over 32 mg/L, an MIC [5, 27] of 32 mg/L and an MIC [5, 28] of 16 mg/L. For the same molecule, the MIC [6, 29] was 0.004 mg/L (≈ 0.00472 µM), the MIC [7, 30] was 0.5 mg/L (≈ 0.59 µM) and the MIC [8, 31] was 4 mg/L (≈ 4.72 µM). For the same molecule, the MIC ([9]; 20 h, Table 4, RPMI + FCS, read-out: A. baumannii MIC, WT) was at most 0.002 mg/L, the MIC ([9]; read-out: MIC A. baumannii, RPMI medium supplemented with 10% FCS, 35° C. 20 hours) was under 0.002 mg/L and the MIC [10, 32] was 0.03 mg/L. It also gave an MIC [10, 33] of 0.06 mg/L, an MIC [10, 34] of 0.016 mg/L and an MIC [10, 35] of 0.25 mg/L. For the same molecule, the MIC [10, 36] was over 32 mg/L and the MIC [11, 37] was 0.125 mg/L (≈ 0.148 µM).
With `CO[C@H]1/C=C/O[C@@]2(C)Oc3c(C)c(O)c4c(O)c(c(/C=N/N5CCN(C)CC5)c(O)c4c3C2=O)NC(=O)/C(C)=C\C=C\[C@H](C)[C@H](O)[C@@H](C)[C@@H](O)[C@@H](C)[C@H](OC(C)=O)[C@@H]1C` [Rifampicin, reference compound] the MIC ([1]; read-out: A. baumannii MIC, RpoB H535Q, Table 4, cation-adjusted Mueller Hinton broth (rifampicin)) was over 32 mg/L, the MIC ([1]; read-out: MIC, RpoB mutation H535Q, Table 5 part 1 c2, 1st H535Q isolate, cation-adjusted Mueller Hinton broth (rifampicin)) was over 32 mg/L and the MIC ([1]; read-out: MIC, RpoB mutation H535Q, Table 5 part 1 c3, 2nd H535Q isolate, cation-adjusted Mueller Hinton broth (rifampicin)) was over 32 mg/L. For the same molecule, the MIC ([1]; read-out: MIC, RpoB mutation H535Q, Table 5 part 1 c4, 3rd H535Q isolate, cation-adjusted Mueller Hinton broth (rifampicin)) was over 32 mg/L, the MIC ([3]; read-out: MIC, RpoB mutation L542F, Table 5 part 3 c2, 1st L542F isolate, cation-adjusted Mueller Hinton broth (rifampicin)) was 8 mg/L (≈ 9.72 µM) and the MIC ([3]; read-out: MIC, RpoB mutation L542F, Table 5 part 3 c3, 2nd L542F isolate, cation-adjusted Mueller Hinton broth (rifampicin)) was 8 mg/L (≈ 9.72 µM). The MIC [12] was over 32 mg/L, the MIC ([4]; read-out: A. baumannii MIC, RpoB H535L, Table 4, cation-adjusted Mueller Hinton broth (rifampicin)) was over 32 mg/L and the MIC ([4]; read-out: MIC, RpoB mutation H535L, Table 5 part 2 c5, 1st H535L isolate, cation-adjusted Mueller Hinton broth (rifampicin)) was over 32 mg/L. For the same molecule, the MIC ([4]; read-out: MIC, RpoB mutation H535L, Table 5 part 2 c6, 2nd H535L isolate, cation-adjusted Mueller Hinton broth (rifampicin)) was over 32 mg/L, the MIC ([4]; read-out: MIC, RpoB mutation H535L, Table 5 part 3 c1, 3rd H535L isolate, cation-adjusted Mueller Hinton broth (rifampicin)) was over 32 mg/L and the MIC ([4]; read-out: MIC, RpoB mutation H535L, Table 5 part 3 c6, 4th H535L isolate, cation-adjusted Mueller Hinton broth (rifampicin)) was over 32 mg/L. For the same molecule, the MIC ([4]; read-out: MIC, RpoB mutation H535L, Table 5 part 3 c7, 5th H535L isolate, cation-adjusted Mueller Hinton broth (rifampicin)) was over 32 mg/L, the MIC [6, 29] was at most 2 mg/L and the MIC [7, 30] was 250 mg/L (≈ 304 µM). The MIC [13] was over 32 mg/L, the MIC [8, 31] was 1000 mg/L (≈ 1220 µM) and the MIC ([9]; Table 4, cation-adjusted Mueller Hinton broth (rifampicin), read-out: A. baumannii MIC, WT) was 8 mg/L (≈ 9.72 µM). For the same molecule, the MIC ([10]; read-out: A. baumannii MIC, RpoB H535C, Table 4, cation-adjusted Mueller Hinton broth (rifampicin)) was over 32 mg/L, the MIC ([10]; read-out: MIC, RpoB mutation H535C, Table 5 part 2 c2, 2nd H535C isolate, cation-adjusted Mueller Hinton broth (rifampicin)) was over 32 mg/L and the MIC ([10]; read-out: MIC, RpoB mutation H535C, Table 5 part 2 c3, 3rd H535C isolate, cation-adjusted Mueller Hinton broth (rifampicin)) was over 32 mg/L. It also gave an MIC ([10]; read-out: MIC, RpoB mutation H535C, Table 5 part 2 c4, 4th H535C isolate, cation-adjusted Mueller Hinton broth (rifampicin)) of over 32 mg/L, an MIC [14] of over 32 mg/L and an MIC [11, 37] of 500 mg/L (≈ 608 µM).
With `CO[C@H]1/C=C/O[C@@]2(C)Oc3c(C)c(O)c4c(c3C2=O)C2=NC3(CC5CCC(C3)N5C)NC2=C(NC(=O)/C(C)=C\C=C\[C@H](C)[C@H](O)[C@@H](C)[C@@H](O)[C@@H](C)[C@H](OC(C)=O)[C@@H]1C)C4=O` (single isomer, unassigned) [Compound 13B] the MIC [1, 15] was at most 0.002 mg/L, the MIC [1, 16] was at most 0.002 mg/L and the MIC [1, 17] was 4 mg/L. It also gave an MIC [1, 18] of 2 mg/L, an MIC S. aureus [2] of 0.016 mg/L (≈ 0.0193 µM) and an MIC [3, 19] of 0.002 mg/L. It also gave an MIC [3, 20] of 0.125 mg/L, an MIC [4, 21] of 0.03 mg/L and an MIC [4, 22] of 0.004 mg/L. It also gave an MIC [4, 23] of at most 0.002 mg/L, an MIC [4, 24] of 0.25 mg/L and an MIC [4, 25] of 0.03 mg/L. For the same molecule, the MIC [4, 26] was 0.03 mg/L, the MIC [5, 27] was 0.5 mg/L and the MIC [5, 28] was 1 mg/L. The MIC ([6]; ATCC12228, read-out: MIC S. epidermidis) was under 0.002 mg/L, the MIC ([7]; ATCC49247, read-out: MIC H. influenzae) was 0.125 mg/L (≈ 0.15 µM) and the MIC ([8]; ATCC51575, read-out: MIC E. faecalis) was 0.5 mg/L (≈ 0.602 µM). The MIC ([9]; 20 h, read-out: A. baumannii MIC, WT, Table 4, RPMI + FCS) was at most 0.002 mg/L, the MIC A. baumannii ([9]; RPMI medium supplemented with 10% FCS, 35° C. 20 hours) was under 0.002 mg/L and the MIC [10, 32] was at most 0.002 mg/L. It also gave an MIC [10, 33] of at most 0.002 mg/L, an MIC [10, 34] of 0.002 mg/L and an MIC [10, 35] of 0.004 mg/L. For the same molecule, the MIC [10, 36] was 0.016 mg/L and the MIC ([11]; NCTC12204, read-out: MIC E. faecium) was 0.125 mg/L (≈ 0.15 µM).
